Reference: patent US6551602B1, “Skin care composition containing conjugated linoleic acid and a phenolic compound” (Conopco, Inc., priority 1999, dated 2003)

How the values were obtained:
Format in all cases: cell-based
[1] = system: ICAM production by human skin fibroblasts; test: Fibroblast ICAM-1 assay (PMA-induced); conditions: PMA 10 nM
Procedure: Fibroblasts PGE2 and ICAM Assay Intracellular adhesion molecules (ICAM) and PEG2 production by human skin fibroblasts can be induced by the inflammatory stimulus PMA (phorbal myristate acetate). PMA represents an external stressor which induces oxidative stress and inflammatory responses in cells. This model is used to model inflammation in vivo. Primary human foreskin fibroblasts at passage 2 (P2) were seeded into 96-well plates at 10000 cells/well and maintained for 24 hours in an atmosphere of 5% carbon dioxide in Dulbeccos Modified Eagles Medium (DMEM) supplemented with 10% foetal calf serum. The test substances as indicated in the table 7 below were added to fresh cell media (DMEM, supplemented with 10% foetal calf serum) in dimethylsulphoxide and ethanol final concentration<1%) in triplicate and incubated for a further 24 hours. […] The fibroblasts/media were then analysed as described below immediately or snap frozen in liquid nitrogen and stored at −70° C. for future analysis. The cells were then counted and data from the dot-blot analysis subsequently standardised to cell number. […] The soluble ICAM-1 was assessed with commercially available immunoenzymometric assay kit (R&D Systems). Concentrations of ICAM-1 in the samples were determined based on parallel running standard curve.

[2] = system: PGE2 production by human skin fibroblasts; test: Fibroblast PGE2 assay (PMA-induced); conditions: PMA 10 nM
Procedure: Fibroblasts PGE2 and ICAM Assay
Intracellular adhesion molecules (ICAM) and PEG2 production by human skin fibroblasts can be induced by the inflammatory stimulus PMA (phorbal myristate acetate). PMA represents an external stressor which induces oxidative stress and inflammatory responses in cells. This model is used to model inflammation in vivo.
Primary human foreskin fibroblasts at passage 2 (P2) were seeded into 96-well plates at 10000 cells/well and maintained for 24 hours in an atmosphere of 5% carbon dioxide in Dulbeccos Modified Eagles Medium (DMEM) supplemented with 10% foetal calf serum. The test substances as indicated in the table 7 below were added to fresh cell media (DMEM, supplemented with 10% foetal calf serum) in dimethylsulphoxide and ethanol final concentration<1%) in triplicate and incubated for a further 24 hours. Phorbal myristate acetate (PMA) (Sigma) was added 10 nM to the media and the cells incubated for a further 24 hours. […] The fibroblasts/media were then analysed as described below immediately or snap frozen in liquid nitrogen and stored at −70° C. for future analysis. The cells were then counted and data from the dot-blot analysis subsequently standardised to cell number.
Prostaglandin E2 (PGE2) Assay
Volumes of 50 μl culture medium were taken for PGE2 assay after gently shaking the culture plate. PGE2 levels in the medium were determined with a Biotrak PGE2 immunoassay kit (Amersham, UK). The assay is based on the competition between unlabelled PGE2 in the sample and a fixed quantity of horseradish peroxidase labelled PGE2 for a limited amount of fixed PGE2 specific antibody. Concentrations of unlabelled sample PGE2 are determined according to a standard curve which was obtained at the same time.

[3] = system: decorin synthesis in human dermal fibroblasts; test: Dot blot assay for decorin protein in dermal fibroblast conditioned medium; conditions: 24 h, relative to vehicle treated control = 100 arbitrary units
Procedure: Procedure for Measuring Procollagen-I and Decorin Synthesis in Human Dermal Fibroblasts
Preparation of Dermal Fibroblast Conditioned Medium
Primary human foreskin fibroblasts at passage 2 (P2) were seeded into 12-well plates at 10000 cells/cm^2 and maintained for 24 hours in an atmosphere of 5% carbon dioxide and 4% oxygen in Dulbeccos Modified Eagles Medium (DMEM) supplemented with 10% foetal calf serum. After this time the cells were washed with serum free DMEM and then incubated in fresh serum free DMEM for a further 60 hours.
The fibroblast monolayers were then washed again with serum free DMEM. […] This fibroblast conditioned medium was either analysed immediately or snap frozen in liquid nitrogen and stored at −70° C. for future analysis. The cells were then counted and data from the dot-blot analysis subsequently standardised to cell number. […]
Membranes prepared for decorin analysis were blocked with 3% (w/v) BSA/0.1% (v/v) Tween 20 in PBS, whilst those for procollagen-I analysis were blocked with 5% (w/v) non fat dried milk powder/0.05% Tween 20 in PBS. […] Dot intensity was assessed by computer-assisted image analysis using the quantification tools in ImageQuant™, standardised to cell number and the effects of various test reagents on decorin and procollagen-I synthesis were determined relative to a vehicle treated control value of 100 arbitrary units. […]

O=C(O[C@@H]1Cc2c(O)cc(O)cc2O[C@@H]1c1cc(O)c(O)c(O)c1)c1cc(O)c(O)c(O)c1 [EGCG, epigallocatechin gallate]
% of inhibition of fibroblast ICAM production ([1]; EGCG 5 μM): 4.5%
% of Inhibition of Fibroblast PGE2 Levels ([2]; EGCG 5 μM): 35.6%
Decorin ([3]; 0.5 μg/ml EGCG): −99.6%

conjugated linoleic acid [CLA]
% of inhibition of fibroblast ICAM production ([1]; CLA 1 μM): 27.7%
% of Inhibition of Fibroblast PGE2 Levels ([2]; CLA 0.1 μM): 16.9%
% of Inhibition of Fibroblast PGE2 Levels ([2]; CLA 5 μM): 14.5%
Decorin ([3]; 0.1 μM CLA): 68.29%

O=c1c(-c2ccc(O)cc2)coc2cc(O)cc(O)c12 [genistein]
inhibition at 5 µM ([2]; Homo sapiens, Skin fibroblast, genistein 5 μM, read-out: % of Inhibition of Fibroblast PGE2 Levels): 52%
